From US20180193365A1, “USE OF HYDROGEN SULFIDE TO PREVENT LENS OPACIFICATION” (Creighton University, priority 2017, published 2018)
“Also recorded” adds a separate entry of the source.

Legend:
cultured bovine lenses [1] = test: Lens degradation/opacification of DMEM-cultured bovine lenses (light transmittance, photographs); format: cell-based; details: 120 hours; for attenuation of light transmittance compared to untreated DMEM lenses (time=0 hours): 420 nm
cultured bovine lenses [2] = test: H2O2-induced lens degradation/opacification in cultured bovine lenses (light transmittance, photographs); format: cell-based
glutathione (GSH) = details: 50 mM; 120 hours

Row | Structure (SMILES) | attenuation of light transmittance compared to untreated DMEM lenses (time=0 hours) (cultured bovine lenses [1]; 3 mM) | attenuation of light transmittance compared to untreated DMEM lenses (time=0 hours) (cultured bovine lenses [1]; 10 mM) | qualitative assessment of lens opacity (photographs against grid) (cultured bovine lenses [1]; 10 mM) | attenuation of H2O2-induced inhibition of light transmittance (cultured bovine lenses [2]; 3 mM, H2O2 50 mM, 120 hours) | qualitative assessment of H2O2-induced lens opacity (photographs against grid) (cultured bovine lenses [2]; 3 mM, H2O2 50 mM, 120 hours) | protection from peroxide-induced lens degradation (cultured bovine lenses [2]; 10 mM, H2O2 50 mM, 120 hours) | decrease of light transmittance compared to DMEM-cultured lenses (time=0 hour) (cultured bovine lenses [2]; 50 mM, after 120 hours) | attenuation of GSH content compared to untreated lenses (time=0 hours) (glutathione (GSH))
1 | O=C1O[C@H]([C@@H](O)CO)C(O)=C1O [ascorbic acid] | 60.57% | 57.42% | accelerated the degradation process; also recorded: accelerated lens degradation; also recorded: accelerated clouding of the lens | 9.22% | protected lenses from peroxide-induced degradation | failed to protect |  | 
2 | OO [H2O2, hydrogen peroxide] |  |  |  |  |  |  | 36.76% | 82.56%
